Experimental data as given in patent publication US4686215A, “Pharmaceutical composition and method for treating tumors susceptible to 2-carbamoylaziridine” (priority 1976, dated 1987).

Legend:
carcinosarcoma DS = conditions: known drugs, prior art; cited from earlier work
[1] = prior art compound; cited from earlier work
SA-45 = test: action in rats with SA-45 at late stages of tumor development (17 days after implantation); type: in vivo, rat; conditions: group II; 10 animals; i.v. 1500 mg/kg, 17 days after tumor implantation
Description: (§1) Non-linear male rats with the starting weight 120-150 g were used in the experiments described hereinunder in Examples 1-4. All the animals were administered intravenously a single dose of the pharmaceutical composition in the form of the concentrated solution (10-30%) of the active principle in distilled water at a rate of 1500 mg/kg. The animals were decapitated on the 20th say from the day of the administration. All the animals received the usual laboratory ration.
The action of the pharmaceutical composition consisting of 30% solution of the active principle above formula where R is NH2, in distilled water was tested in rats with SA-45 at late stages of tumor development. The composition was administered 17 days after tumor implantation. The results of the experiment are presented in Table 4 where I--control animals, II--rats which were administered the pharmaceutical composition.

toxicity (LD50) = type: in vivo; conditions: compared with prior art
[2] = tested on: implanted mammary gland cancer (RMGC-1); test: action on tumor growth in rats with implanted mammary gland cancer RMGC-1, early stage (24 hours after implantation); type: in vivo, rat; conditions: 10 animals
Description: as §1
The action of the pharmaceutical composition consisting of 30% solution of the active principle of the above formula where R is NHNH2, in distilled water on tumor growth was tested in rats with implanted mammary gland cancer (RMGC-1). The results of the experiments are presented in Table 1, where I--control animals, II--rats which were administered the pharmaceutical composition, III--rats which were administered the same composition against the background of 90 minutes' hyperglycemia. The animals of groups II and III were administered the composition 24 hours after tumor implantation.

implanted RMCC-1 = test: action in rats with implanted RMCC-1 at late stage of tumor development (15 days after implantation); type: in vivo, rat; conditions: group II, i.v. 1500 mg/kg
Description: as §1
The action of the same pharmaceutical composition as in Example 1 was tested in rats with implanted RMCC-1 at late stage of tumor development. The pharmaceutical composition was administered 15 days after tumor implanatation, the average weight of the tumor being 35 g. The groups of the animals are designated as in Example 1. None of the controls survived till the day of decapitation (the 20th day after the administration of the pharmaceutical composition to group II).

implanted SA-45 = test: action in rats with implanted SA-45 at early stages of tumor development (48 hours after implantation); type: in vivo, rat; conditions: group II; 10 animals; i.v. 1500 mg/kg, 48 hours after tumor implantation
Description: as §1
The action of the same pharmaceutical composition as in Example 1 was tested in rats with implanted SA-45 at early stages of tumor development. The pharmaceutical composition was administered 48 hours after tumor implantation. The results of the experiment are presented in Table 3, where I--control group, II--rats which were administered pharmaceutical composition.

[3] = group II, single i.v. dose 1500 mg/kg, 24 hours after tumor implantation, 20th day
[4] = group III, against the background of 90 minutes' hyperglycemia, i.v. 1500 mg/kg, 24 hours after implantation
[5] = 6 animals, 15 days after tumor implantation, average tumor weight 35 g

N#CC1CN1C(N)=O (centres unmarked) [1-carbamoyl-2-cyano-aziridine]
cure of rats with carcinosarcoma DS (carcinosarcoma DS): 47.4% | LD50 [1]: 1 250 mg/kg

NC(=O)C1CN1 (centres unmarked) [2-carbamoylaziridine]
Complete disappearance of the tumor (animals) (SA-45): 6 | No effect (animals) (SA-45): 2 | Partial disappearance of the tumor (animals) (SA-45): 2 | therapeutic index (toxicity (LD50)): considerably higher

NNC(=O)C1CN1 (centres unmarked) [active principle where R is NHNH2]
Complete disappearance of the tumor (animals) [2, 3]: 8 | No effect (animals) [2, 3]: 2 | Complete disappearance of the tumor (animals) [2, 4]: 7 | No effect (animals) [2, 4]: 1 | Partial disappearance of the tumor (animals) [2, 4]: 2 | Life time increased by (implanted RMCC-1; animals with partial disappearance of the tumor, 15 days after implantation): 50% | Complete disappearance of the tumor (animals) (implanted RMCC-1; [5]): 3 | Partial disappearance of the tumor (animals) (implanted RMCC-1; [5]): 3 | Complete disappearance of the tumor (animals) (implanted SA-45): 3 | No effect (animals) (implanted SA-45): 4 | Partial disappearance of the tumor (animals) (implanted SA-45): 3
